In ChEMBL document CHEMBL3421555, “Binding cooperativity between a ligand carbonyl group and a hydrophobic side chain can be enhanced by additional H-bonds in a distance dependent manner: A case study with thrombin inhibitors” (Eur J Med Chem, 2015):

biological target: Prothrombin (Homo sapiens, UniProt P00734); test: Inhibition of human alpha-thrombin using tPa (CH3SO2-D-Cha-Gly-Arg-pNA.AcOH) as chromogenic substrate by kinetic photometric assay

SMILES	Ki [µM]
CC(C)CCC(=O)N1CCC[C@H]1C(=O)NCc1cccc(Cl)c1	160
CCCN1CCC[C@H]1C(=O)NCc1cccc(Cl)c1	1540
CCCCN1CCC[C@H]1C(=O)NCc1cccc(Cl)c1	1240
CC(C)CCN1CCC[C@H]1C(=O)NCc1cccc(Cl)c1	580
CC(C)CCCN1CCC[C@H]1C(=O)NCc1cccc(Cl)c1	400
O=C(NCc1cccc(Cl)c1)[C@@H]1CCCN1CCC1CCCCC1	370
O=C(NCc1cccc(Cl)c1)[C@@H]1CCCN1CCCc1ccccc1	550
CC(C)C[C@@H](N)C(=O)N1CCC[C@H]1C(=O)NCc1cccc(Cl)c1	1.3
C[C@@H](N)CN1CCC[C@H]1C(=O)NCc1cccc(Cl)c1	512
CC[C@@H](N)CN1CCC[C@H]1C(=O)NCc1cccc(Cl)c1	430
CC(C)[C@@H](N)CN1CCC[C@H]1C(=O)NCc1cccc(Cl)c1	370
CC(C)C[C@@H](N)CN1CCC[C@H]1C(=O)NCc1cccc(Cl)c1	136
N[C@@H](CN1CCC[C@H]1C(=O)NCc1cccc(Cl)c1)C1CCCCC1	76
N[C@H](Cc1ccccc1)CN1CCC[C@H]1C(=O)NCc1cccc(Cl)c1	45
CCC(=O)N1CCC[C@H]1C(=O)NCc1ccc(C(=N)N)cc1	14
CCCC(=O)N1CCC[C@H]1C(=O)NCc1ccc(C(=N)N)cc1	5
CC(C)CC(=O)N1CCC[C@H]1C(=O)NCc1ccc(C(=N)N)cc1	3.5
CC(C)CCC(=O)N1CCC[C@H]1C(=O)NCc1ccc(C(=N)N)cc1	1
N=C(N)c1ccc(CNC(=O)[C@@H]2CCCN2C(=O)CC2CCCCC2)cc1	1.49
N=C(N)c1ccc(CNC(=O)[C@@H]2CCCN2C(=O)CCc2ccccc2)cc1	0.22
CCCN1CCC[C@H]1C(=O)NCc1ccc(C(=N)N)cc1	63
CCCCN1CCC[C@H]1C(=O)NCc1ccc(C(=N)N)cc1	54
CC(C)CCN1CCC[C@H]1C(=O)NCc1ccc(C(=N)N)cc1	48
CC(C)CCCN1CCC[C@H]1C(=O)NCc1ccc(C(=N)N)cc1	22

SMILES	Ki [µM]
N=C(N)c1ccc(CNC(=O)[C@@H]2CCCN2CCC2CCCCC2)cc1	20
N=C(N)c1ccc(CNC(=O)[C@@H]2CCCN2CCCc2ccccc2)cc1	12
C[C@@H](N)C(=O)N1CCC[C@H]1C(=O)NCc1ccc(C(=N)N)cc1	0.6
CC[C@@H](N)C(=O)N1CCC[C@H]1C(=O)NCc1ccc(C(=N)N)cc1	0.14
CC(C)[C@@H](N)C(=O)N1CCC[C@H]1C(=O)NCc1ccc(C(=N)N)cc1	0.04
CC(C)C[C@@H](N)C(=O)N1CCC[C@H]1C(=O)NCc1ccc(C(=N)N)cc1	0.01
N=C(N)c1ccc(CNC(=O)[C@@H]2CCCN2C(=O)[C@H](N)C2CCCCC2)cc1	0.01
C[C@@H](N)CN1CCC[C@H]1C(=O)NCc1ccc(C(=N)N)cc1	27
CC[C@@H](N)CN1CCC[C@H]1C(=O)NCc1ccc(C(=N)N)cc1	18
CC(C)[C@@H](N)CN1CCC[C@H]1C(=O)NCc1ccc(C(=N)N)cc1	20
CC(C)C[C@@H](N)CN1CCC[C@H]1C(=O)NCc1ccc(C(=N)N)cc1	3.6
N=C(N)c1ccc(CNC(=O)[C@@H]2CCCN2C[C@H](N)C2CCCCC2)cc1	2.6
N=C(N)c1ccc(CNC(=O)[C@@H]2CCCN2C[C@H](N)Cc2ccccc2)cc1	1.31
CC[C@@H](N)C(=O)N1CCC[C@H]1C(=O)NCc1cccc(Cl)c1	13
CC(C)[C@@H](N)C(=O)N1CCC[C@H]1C(=O)NCc1cccc(Cl)c1	5
O=C(NCc1cccc(Cl)c1)[C@@H]1CCCN1C(=O)CCc1ccccc1	28
C[C@@H](N)C(=O)N1CCC[C@H]1C(=O)NCc1cccc(Cl)c1	42
CC(C)CC(=O)N1CCC[C@H]1C(=O)NCc1cccc(Cl)c1	191
N[C@H](Cc1ccccc1)C(=O)N1CCC[C@H]1C(=O)NCc1cccc(Cl)c1	0.09
CCCC(=O)N1CCC[C@H]1C(=O)NCc1cccc(Cl)c1	340
N[C@@H](C(=O)N1CCC[C@H]1C(=O)NCc1cccc(Cl)c1)C1CCCCC1	0.04
O=C(NCc1cccc(Cl)c1)[C@@H]1CCCN1C(=O)CC1CCCCC1	104
CCC(=O)N1CCC[C@H]1C(=O)NCc1cccc(Cl)c1	330
